From ChEMBL document CHEMBL3826978, “Design, synthesis and biological evaluation of novel chiral oxazino-indoles as potential and selective neuroprotective agents against Aβ25-35-induced neuronal damage” (Bioorg Med Chem Lett, 2016)
Active and inactive are the calls of the source. The rule behind the calls is not given here.

Legend:
SH-SY5Y [1] = test: Neuroprotective activity against oxygen glucose deprivation-induced neurotoxicity in human SH-SY5Y cells; type: functional, cell-based
SH-SY5Y [2] = test: Neuroprotective activity against H2O2-induced neurotoxicity in human SH-SY5Y cells; type: functional, cell-based
SH-SY5Y [3] = test: Neuroprotective activity against amyloid beta(25 to 35)-induced neurotoxicity in human SH-SY5Y cells assessed as cell viability at 10 uM (reference value: 62.1 +/- 2.2%); type: functional; conditions: for viability at 10 µM: read-out: Activity
SH-SY5Y [4] = test: Cytotoxicity against human SH-SY5Y cells assessed as cell proliferation by SRB assay; type: cell-based
SH-SY5Y [5] = test: Cytotoxicity against human SH-SY5Y cells assessed as cell viability by MTT assay; type: cell-based
SH-SY5Y [6] = test: Neuroprotective activity against amyloid beta(25 to 35)-induced neurotoxicity in human SH-SY5Y cells assessed as cell viability at 10 uM by SRB assay; type: functional, cell-based

Structure (SMILES) | Activity (SH-SY5Y [1]) | Activity (SH-SY5Y [2]) | Activity (SH-SY5Y [3]) | Activity (SH-SY5Y [4]) | Activity (SH-SY5Y [5]) | Activity (SH-SY5Y [6]) | viability at 10 µM (SH-SY5Y [3])
Cc1c2n(c3ccccc13)C[C@H](C)O[C@@H]2c1ccc(F)cc1 | inactive | inactive | inactive | – | – | – | –
COc1cc([C@H]2O[C@@H](C)Cn3c2c(C)c2ccccc23)cc(OC)c1OC | inactive | inactive | inactive | – | – | – | –
Cc1c2n(c3ccccc13)C[C@@H](C)O[C@@H]2c1ccccc1 | inactive | inactive | inactive | – | – | – | –
Cc1c2n(c3ccccc13)C[C@@H](C)O[C@@H]2c1ccc(F)cc1 | inactive | inactive | inactive | – | – | – | –
Cc1c2n(c3ccccc13)C[C@@H](C)O[C@H]2c1ccccc1 | inactive | inactive | inactive | – | – | – | –
Cc1c2n(c3ccccc13)C[C@H](C)O[C@@H]2c1ccc(C(F)(F)F)cc1 | inactive | inactive | inactive | – | – | – | –
Cc1c2n(c3ccccc13)C[C@@H](C)O[C@H]2c1ccc(F)cc1 | inactive | inactive | – | Non-toxic | Non-toxic | Active | 90.6%
Cc1c2n(c3ccccc13)C[C@H](C)O[C@H]2c1ccc(C(C)(C)C)cc1 | inactive | inactive | – | Non-toxic | Non-toxic | Active | 92.1%
COc1ccccc1[C@@H]1O[C@@H](C)Cn2c1c(C)c1ccccc12 | inactive | inactive | – | – | – | – | 77.7%
Cc1c2n(c3ccccc13)C[C@H](C)O[C@@H]2c1ccc(Cl)cc1 | inactive | inactive | – | – | – | – | 74.4%
Cc1c2n(c3ccccc13)C[C@H](C)O[C@@H]2c1ccc(CC(C)C)cc1 | inactive | inactive | – | Non-toxic | Non-toxic | Active | 108%
CCc1ccc([C@@H]2O[C@@H](C)Cn3c2c(C)c2ccccc23)cc1 | inactive | inactive | inactive | – | – | – | –
Cc1cc(C)cc([C@@H]2O[C@@H](C)Cn3c2c(C)c2ccccc23)c1 | inactive | inactive | – | – | – | – | 87.1%
Cc1c2n(c3ccccc13)C[C@H](C)O[C@H]2c1ccccc1 | inactive | inactive | inactive | – | – | – | –
Cc1cc(C)cc([C@H]2O[C@@H](C)Cn3c2c(C)c2ccccc23)c1 | inactive | inactive | inactive | – | – | – | –
Cc1ccc([C@@H]2O[C@@H](C)Cn3c2c(C)c2ccccc23)cc1 | inactive | inactive | inactive | – | – | – | –
Cc1cccc([C@@H]2O[C@@H](C)Cn3c2c(C)c2ccccc23)c1 | inactive | inactive | inactive | – | – | – | –
Cc1c2n(c3ccccc13)C[C@H](C)O[C@H]2c1ccc(F)cc1 | inactive | inactive | inactive | – | – | – | –

Structure (SMILES) | Activity (SH-SY5Y [1]) | Activity (SH-SY5Y [2]) | Activity (SH-SY5Y [3]) | Activity (SH-SY5Y [4]) | Activity (SH-SY5Y [5]) | Activity (SH-SY5Y [6]) | viability at 10 µM (SH-SY5Y [3])
Cc1c2n(c3ccccc13)C[C@H](C)O[C@H]2c1cccs1 | inactive | inactive | inactive | – | – | – | –
COc1ccccc1[C@H]1O[C@@H](C)Cn2c1c(C)c1ccccc12 | inactive | inactive | inactive | – | – | – | –
Cc1ccccc1[C@@H]1O[C@@H](C)Cn2c1c(C)c1ccccc12 | inactive | inactive | inactive | – | – | – | –
CCc1ccc([C@H]2O[C@@H](C)Cn3c2c(C)c2ccccc23)cc1 | inactive | inactive | – | Non-toxic | Non-toxic | Active | 93%
Cc1c2n(c3ccccc13)C[C@H](C)O[C@H]2c1ccc(Cl)cc1 | inactive | inactive | inactive | – | – | – | –
Cc1c2n(c3ccccc13)C[C@H](C)O[C@@H]2c1ccc(C(C)(C)C)cc1 | inactive | inactive | – | – | – | – | 84.5%
Cc1c2n(c3ccccc13)C[C@H](C)O[C@@H]2c1ccccc1 | inactive | inactive | inactive | – | – | – | –
Cc1ccc([C@H]2O[C@@H](C)Cn3c2c(C)c2ccccc23)cc1 | inactive | inactive | inactive | – | – | – | –
COc1cccc([C@@H]2O[C@@H](C)Cn3c2c(C)c2ccccc23)c1 | inactive | inactive | inactive | – | – | – | –
Cc1c2n(c3ccccc13)C[C@H](C)O[C@@H]2c1coc2ccccc2c1=O | inactive | inactive | inactive | – | – | – | –
Cc1c2n(c3ccccc13)C[C@H](C)O[C@H]2c1ccc(C(F)(F)F)cc1 | inactive | inactive | inactive | – | – | – | –
Cc1c2n(c3ccccc13)C[C@H](C)O[C@H]2c1ccc(CC(C)C)cc1 | inactive | inactive | – | Non-toxic | Non-toxic | Active | 96.2%
O=C(O[C@@H]1Cc2c(O)cc(O)cc2O[C@@H]1c1cc(O)c(O)c(O)c1)c1cc(O)c(O)c(O)c1 [EPIGALOCATECHIN GALLATE] | – | – | – | – | – | – | 98.6%
Cc1cccc([C@H]2O[C@@H](C)Cn3c2c(C)c2ccccc23)c1 | inactive | inactive | inactive | – | – | – | –
COc1cc([C@@H]2O[C@@H](C)Cn3c2c(C)c2ccccc23)cc(OC)c1OC | inactive | inactive | inactive | – | – | – | –
Cc1ccccc1[C@H]1O[C@@H](C)Cn2c1c(C)c1ccccc12 | inactive | inactive | inactive | – | – | – | –
Cc1c2n(c3ccccc13)C[C@H](C)O[C@@H]2c1cccs1 | inactive | inactive | inactive | – | – | – | –
COc1cccc([C@H]2O[C@@H](C)Cn3c2c(C)c2ccccc23)c1 | inactive | inactive | inactive | – | – | – | –
